From US12257243B2, “5-hydroxy-7-oxabicyclo[2.2.1]heptane-2-carboxamide derivatives for inducing chondrogenesis for treating joint damage” (NOVARTIS AG, priority 2018, dated 2025)

Tested on: ALP in normal human articular chondrocytes (NHACs)
Experiment: Alkaline Phosphatase (ALP) activity assay (staining and quantitation) in NHACs, prevention of chondrocyte hypertrophy
Format: cell-based
Conditions: Chondrocyte, 288 h, human IL-1 beta 10 ng/mL, 12 days; for IC50: Fast Blue RR staining, high content imaging, read-out: ALP in NHAC IC50; for Emax: value in parentheses, read-out: ALP in NHAC (% Efficacy)
Description: The compounds of the present invention were evaluated in the Alkaline Phosphatase (ALP) activity assay to determine the ability of the compounds to prevent chondrocyte hypertrophy in normal human articular chondrocytes (NHACs).
Normal human articular chondrocytes (NHACs) were purchased from PromoCell (Heidelberg, Germany) and grown in Chondrocyte Growth Medium (CGM; Lonza, Walkersville, Md.).
NHACs were expanded in Chondrocyte Growth Medium (CGM) from Lonza until they reached a 60-80% confluency. To initiate differentiation, 7,500 cells were plated/well with indicated test compound dose in 384-well Cell Carrier Ultra plates (Perkin Elmer) with DMEM (SH30022—HyClone) containing 10% FBS (35-015-CV—Corning), 1% Pen/Strep antibiotics (SV30010—HyClone), and 1% Normocin (50 mg/mL—InvivoGen). Cells with test compounds were incubated at 37° C., 5% CO2 for 5 hours and then added human IL-1 beta (AF-200-1B—Peprotech) to each well at a final concentration of 10 ng/mL and incubated at 37° C., 5% CO2 for 12 days.
To detect the presence of hypertrophic cells, NHACs were fixed with 4% paraformaldehyde and Hoechst 33342 (Invitrogen) dye for 30 minutes, rinsed in PBS, then stained with Fast Blue RR Salt (F0500—Sigma) with Naphthol AS-MX Phosphate Alkaline Solution, 0.25% (855—Sigma-Aldrich).
The staining was imaged by fluorescent microscopy, using the 561 nm wavelength, and/or quantified by high content imaging with the Image press Confocal (Molecular Devices, Sunnyvale, Calif.). Data analyses were performed with a customized multiwavelength cell-scoring application.

Row | SMILES | IC50 [µM] | Emax [%]
1 | O=C(Nc1cccc(C(F)(F)F)c1)[C@@H]1[C@@H](c2cccc(C(F)(F)F)c2)[C@H]2O[C@@H]1C[C@@H]2O (racemic) [Example 10, rac-(1R,2R,3S,4R,5S)-5-hydroxy-N,3-bis(3-(trifluoromethylphenyl)-7-oxabicyclo[2.2.1]heptane-2-carboxamide] | 12 | 108
2 | Cc1c(NC(=O)[C@@H]2[C@@H](c3cccc(C(F)(F)F)c3)[C@H]3O[C@@H]2C[C@@H]3O)cccc1C(F)(F)F (racemic) [Example 11, rac-(1R,2R,3S,4R,5S)-5-hydroxy-N-(2-methyl-3-(trifluoromethyl)phenyl)-3-(3-(trifluoromethyl)phenyl)-7-oxabicyclo[2.2.1]heptane-2-carboxamide] | > 30 | 33
3 | Cc1ccc(NC(=O)[C@@H]2[C@@H](c3cccc(C(F)(F)F)c3)[C@H]3O[C@@H]2C[C@@H]3O)cc1C(F)(F)F (racemic) [Example 12, rac-(1R,2R,3S,4R,5S)-5-hydroxy-N-(4-methyl-3-trifluoromethylphenyl)-3-(3-(trifluoromethyl)phenyl)-7-oxabicyclo[2.2.1]heptane-2-carboxamide] | 9.8 | 102
4 | Cc1cc(NC(=O)[C@@H]2[C@@H](c3cccc(C(F)(F)F)c3)[C@H]3O[C@@H]2C[C@@H]3O)cc(C(F)(F)F)c1 (racemic) [Example 13, rac-(1R,2R,3S,4R,5S)-5-hydroxy-N-(3-methyl-5-(trifluoromethyl)phenyl)-3-(3-(trifluoromethyl)phenyl)-7-oxabicyclo[2.2.1]heptane-2-carboxamide] | 11 | 105
5 | Cc1ccc(C(F)(F)F)cc1NC(=O)[C@@H]1[C@@H](c2cccc(C(F)(F)F)c2)[C@H]2O[C@@H]1C[C@@H]2O (racemic) [Example 14, rac-(1R,2R,3S,4R,5S)-5-hydroxy-N-(2-methyl-5-(trifluoromethyl)phenyl)-3-(3-(trifluoromethyl)phenyl)-7-oxabicyclo[2.2.1]heptane-2-carboxamide] | 13 | 78
6 | O=C(Nc1cccc(C(F)(F)F)c1F)[C@@H]1[C@@H](c2cccc(C(F)(F)F)c2)[C@H]2O[C@@H]1C[C@@H]2O (racemic) [Example 15, rac-(1R,2R,3S,4R,5S)—N-(2-fluoro-3-(trifluoromethyl)phenyl)-5-hydroxy-3-(3-(trifluoromethyl)phenyl)-7-oxabicyclo[2.2.1]heptane-2-carboxamide] | 7 | 105
7 | O=C(Nc1ccc(F)c(C(F)(F)F)c1)[C@@H]1[C@@H](c2cccc(C(F)(F)F)c2)[C@H]2O[C@@H]1C[C@@H]2O (racemic) [Example 16, rac-(1R,2R,3S,4R,5S)—N-(4-fluoro-3-(trifluoromethyl)phen)-5-hydroxy-3-(3-(trifluoromethyl)phenyl)-7-oxabicyclo[2.2.1]heptane-2-carboxamide] | 12 | 105
8 | O=C(Nc1cc(F)cc(C(F)(F)F)c1)[C@@H]1[C@@H](c2cccc(C(F)(F)F)c2)[C@H]2O[C@@H]1C[C@@H]2O (racemic) [Example 17, rac-(1R,2R,3S,4R,5S)—N-(3-fluoro-5-(trifluoromethyl)phenyl)-5-hydroxy-3-(3-(trifluoromethyl)phenyl)-7-oxabicyclo[2.2.1]heptane-2-carboxamide] | 13 | 105
9 | O=C(Nc1ccc(Cl)c(C(F)(F)F)c1)[C@@H]1[C@@H](c2cccc(C(F)(F)F)c2)[C@H]2O[C@@H]1C[C@@H]2O (racemic) [Example 18, rac-(1R,2R,3S,4R,5)-N-(4-chloro-3-(trifluoromethyl)phenyl)-5-hydroxy-3-(3-(trifluoromethyl)phenyl)-7-oxabicyclo[2.2.1]heptane-2-carboxamide] | 8 | 102
10 | O=C(Nc1cc(Cl)cc(C(F)(F)F)c1)[C@@H]1[C@@H](c2cccc(C(F)(F)F)c2)[C@H]2O[C@@H]1C[C@@H]2O (racemic) [Example 19, rac-(1R,2R,3S,4R,5)-N-(3-chloro-5-(trifluoromethyl)phenyl)-5-hydroxy-3-(3-(trifluoromethyl)phenyl)-7-oxabicyclo[2.2.1]heptane-2-carboxamide] | 11 | 102
11 | COc1ccc(NC(=O)[C@@H]2[C@@H](c3cccc(C(F)(F)F)c3)[C@H]3O[C@@H]2C[C@@H]3O)cc1C(F)(F)F (racemic) [Example 20, rac-(1R,2R,3S,4R,5S)-5-hydroxy-N-(4-methoxy-3-trifluoromethyl)phenyl)-3-(3-(trifluoromethyl)phenyl)-7-oxabicyclo[2.2.1]heptane-2-carboxamide] | 14 | 102
12 | COc1cc(NC(=O)[C@@H]2[C@@H](c3cccc(C(F)(F)F)c3)[C@H]3O[C@@H]2C[C@@H]3O)cc(C(F)(F)F)c1 (racemic) [Example 21, rac-(1R,2R,3S,4R,5S)-5-hydroxy-N-(3-methoxy-5-trifluoromethyl)phenyl)-3-(3-(trifluoromethyl)phenyl)-7-oxabicyclo[2.2.1]heptane-2-carboxamide] | 24 | 104
13 | COc1ccc(C(F)(F)F)cc1NC(=O)[C@@H]1[C@@H](c2cccc(C(F)(F)F)c2)[C@H]2O[C@@H]1C[C@@H]2O (racemic) [Example 22, rac-(1R,2R,3S,4R,5S)-5-hydroxy-N-(2-methoxy-5-(trifluoromethyl)phenyl-3-(3-(trifluoromethyl)phenyl)-7-oxabicyclo[2.2.1]heptane-2-carboxamide] | 27 | 75
14 | O=C(Nc1ccc(N2CCOCC2)c(C(F)(F)F)c1)[C@@H]1[C@@H](c2cccc(C(F)(F)F)c2)[C@H]2O[C@@H]1C[C@@H]2O (racemic) [Example 23, rac-(1R,2R,3S,4R,5S)-5-hydroxy-N-(4-morpholino-3-(trifluoromethyl)phenyl)-3-(3-(trifluoromethyl)phenyl)-7-oxabicyclo[2.2.1]heptane-2-carboxamide] | 17 | 108
15 | CCOc1ccc(NC(=O)[C@@H]2[C@@H](c3cccc(C(F)(F)F)c3)[C@H]3O[C@@H]2C[C@@H]3O)cc1C(F)(F)F (racemic) [Example 24, rac-(1R,2R,3S,4R,5S)—N-(4-ethoxy-3-trifluoromethyl)phenyl)-5-hydroxy-3-(3-(trifluoromethyl)phenyl)-7-oxabicyclo[2.2.1]heptane-2-carboxamide] | 14 | 108
16 | O=C(Nc1ccc(C(F)(F)F)c(Cl)n1)[C@@H]1[C@@H](c2cccc(C(F)(F)F)c2)[C@H]2O[C@@H]1C[C@@H]2O (racemic) [Example 25, rac-(1R,2R,3S,4R,5S)—N-(6-chloro-5-(trifluoromethyl)pyridin-2-yl)-5-hydroxy-3-(3-(trifluoromethyl)phenyl)-7-oxabicyclo[2.2.1]heptane-2-carboxamide] | 2.9 | 112
17 | O=C(Nc1ccc(C(F)(F)F)cn1)[C@@H]1[C@@H](c2cccc(C(F)(F)F)c2)[C@H]2O[C@@H]1C[C@@H]2O (racemic) [Example 26, rac-(1R,2R,3S,4R,5S)-5-hydroxy-3-(3-(trifluoromethyl)phenyl)-N-(5-(trifluoromethyl)pyridin-2-yl-7-oxabicyclo[2.2.1]heptane-2-carboxamide] | 11 | 112
18 | O=C(Nc1ccc(C(F)(F)F)nc1)[C@@H]1[C@@H](c2cccc(C(F)(F)F)c2)[C@H]2O[C@@H]1C[C@@H]2O (racemic) [Example 27, rac-(1R,2R,3S,4R,5S)-5-hydroxy-3-(3-(trifluoromethyl)phenyl)-N-(6-(trifluoromethyl)pyridin-3-yl)-7-oxabicyclo[2.2.1]heptane-2-carboxamide] | > 30 | 38
19 | Cc1cc(NC(=O)[C@@H]2[C@@H](c3cccc(C(F)(F)F)c3)[C@H]3O[C@@H]2C[C@@H]3O)cnc1C(F)(F)F (racemic) [Example 28, rac-(1R,2R,3S,4R,5S)-5-hydroxy-N-(5-methyl-6-(trifluoromethyl)pyridin-3-yl)-3-(3-(trifluoromethyl)phenyl)-7-oxabicyclo[2.2.1]heptane-2-carboxamide] | 6 | 98
20 | Cn1cc([C@H]2[C@H]3O[C@H](C[C@@H]3O)[C@@H]2C(=O)Nc2ccc(C(F)(F)F)cc2)c(C(F)(F)F)n1 (racemic) [Example 29, rac-(1R,2R,3S,4R,5S)-5-hydroxy-3-(1-methyl-3-trifluoromethyl)-1H-pyrazol-4-yl)-N-(4-(trifluoromethyl)phenyl)-7-oxabicyclo[2.2.1]heptane-2-carboxamide] | 11 | 72
21 | Cc1cc(NC(=O)[C@@H]2[C@@H](c3cn(C)nc3C(F)(F)F)[C@H]3O[C@@H]2C[C@@H]3O)cc(C(F)(F)F)c1 (racemic) [Example 30, rac-(1R,2R,3S,4R,5)-5-hydroxy-3-(1-methyl-3-(trifluoromethyl)-1H-pyrazol-4-yl)-N-(3-methyl-5-(trifluoromethyl)phenyl)-7-oxabicyclo[2.2.1]heptane-2-carboxamide] | 7.2 | 81
